Data set [1] concerns A549. The experiment in a line: Antiproliferative activity against human A549 cells assessed as growth inhibition incubated for 48 hrs by Sulforhodamine B assay. Type of data set: functional. Background: Sulforhodamine B stains cellular protein and so reports cell mass.
Data set [2] concerns HCT-116. The data set can be described thus: Antiproliferative activity against human HCT116 cells assessed as growth inhibition incubated for 48 hrs by Sulforhodamine B assay. Type of data set: functional.
Data set [3] has as its system Hep 3B2. The experiment in a line: Antiproliferative activity against human Hep3B cells assessed as growth inhibition incubated for 48 hrs by Sulforhodamine B assay. Type of data set: functional.
The test system of data set [4] is MDA-MB-231. The experiment in a line: Antiproliferative activity against human MDA-MB-231 cells assessed as growth inhibition incubated for 48 hrs by Sulforhodamine B assay. Type of data set: functional.
Data set [5] can be described thus: Antiproliferative activity against human HUVEC cells assessed as growth inhibition incubated for 48 hrs by Sulforhodamine B assay. The class given is cell-based.
The target of data set [6] is Heat shock protein HSP90 (Homo sapiens, UniProt P07900+P08238). The experiment in a line: Inhibition of HSP90 (unknown origin) assessed as competition of fluorescently labelled geldanamycin binding after 2 hrs by microplate reader analysis. The class given is protein assay.
Data set [7] is described as follows: in vitro. The settings on record: human, HUVEC cells versus A549 cells.
Description: Therapeutic index, ratio of IC50 for HUVEC cells to IC50 for human A549 cells
Data set [8] concerns 661W. The experiment in a line: Cytotoxicity against mouse 661W cells by MTT based vision related toxicity assay. Type of data set: cell-based.
Data set [9] can be described thus: Apparent permeability across basolateral to apical in human Caco2 cells by LC-MS/MS analysis. Type of data set: ADME, cell-based. The settings on record: Caco-2.

For the compound `CC(C)c1cc(C(=O)N(c2ccc3[nH]ccc3c2)C(C)C)c(O)cc1O`, in data set [1], the GI50 (usually the concentration that inhibits growth by half) turned out to be 210 nM.
In the case of `CC(C)c1cc(C(=O)N(C)c2ccc3c(ccn3C)c2)c(O)cc1O`, the GI50 in [1] is 280 nM; in data set [2], 700 nM; in [3], 570 nM; in data set [4], 100 nM. The GI50 at 48 h in [5] was 820 nM. Further, the IC50 – broadly, the concentration that inhibits the measured activity by half – in data set [6] came to 106 nM. Besides, the selectivity ratio in data set [7] was 2.9.
`CCNC(=O)c1noc(-c2cc(C(C)C)c(O)cc2O)c1-c1ccc(CN2CCOCC2)cc1` [LUMINESPIB] showed an Activity in data set [8] of 0.04 µM.
With `CC(C)c1cc(C(=O)N(C)c2ccc3[nH]ccc3c2)c(O)cc1O`, the GI50 in [1] was 170 nM; in [2], 1000 nM; in [3] it was 180 nM; in [4] it was 70 nM. Also, in [5], the GI50 at 48 h turned out to be 570 nM. Besides, the IC50 in data set [6] was 115 nM. Also, the selectivity ratio in [7] turned out to be 3.4.
On to `CC(C)c1cc(C(=O)N(c2ccncc2)C(C)C)c(O)cc1O`, for which the 50% growth inhibitory concentration (GI50) in data set [1] stood at 190 nM.
For the compound `CCCN(C(=O)c1cc(C(C)C)c(O)cc1O)c1ccncc1`, the GI50 in data set [1] was determined as 370 nM.
Consider `COC(=O)c1ccccc1-c1c2ccc(=N)cc-2oc2cc(N)ccc12.Cl` [RHODAMINE123], for which, in data set [9], the permeability was 8.04 10^-6 cm/s.
Regarding `CCN(C(=O)c1cc(C(C)C)c(O)cc1O)c1ccc2c(ccn2C)c1`, in data set [1], the GI50 worked out at 80 nM.
Consider `CC(C)c1cc(C(=O)Nc2ccncc2)c(O)cc1O`, for which the GI50 in data set [1] is over 10000 nM.
Still for that read-out and setting: then `CC(C)c1cc(C(=O)Nc2cccnc2)c(O)cc1O`, with over 10000 nM.
With `COc1c(C)cnc(Cn2cnc3c(Cl)nc(N)nc32)c1C` [BIIB021], the GI50 in data set [3] and in data set [4] was 240 nM throughout. In data set [5], the GI50 at 48 h stood at 1420 nM. In [8], this compound had an Activity of over 10 µM.
Regarding `CC(C)c1cc(-c2n[nH]c(=O)n2-c2ccc3c(ccn3C)c2)c(O)cc1O` [GANETESPIB], the Activity in [8] was over 10 µM.
Regarding `CCN(C(=O)c1cc(C(C)C)c(O)cc1O)c1ccncc1`, the GI50 in data set [1] turned out to be 120 nM; in data set [2] it was 640 nM; in [3], 100 nM; in data set [4], 80 nM. The GI50 at 48 h in data set [5] is under 100 nM. In addition, the IC50 in data set [6] stood at 109 nM. Besides, the selectivity ratio in data set [7] was 0.8.
Turning to `CC(C)c1cc(C(=O)Nc2ccc3[nH]ccc3c2)c(O)cc1O`, the GI50 in data set [1] was over 10000 nM.
Same read-out and setting: then `CCCN(C(=O)c1cc(C(C)C)c(O)cc1O)c1cccnc1`, with 390 nM; and `CC(C)c1cc(C(=O)N(c2cccnc2)C(C)C)c(O)cc1O`, with 260 nM.
Consider `CCCN(C(=O)c1cc(C(C)C)c(O)cc1O)c1ccc2[nH]ccc2c1`, for which the GI50 in [1] worked out at 140 nM.
As for `C=CCNC1=C2C[C@@H](C)C[C@H](OC)[C@H](O)[C@@H](C)/C=C(\C)[C@H](OC(N)=O)[C@@H](OC)/C=C\C=C(/C)C(=O)NC(=CC1=O)C2=O` [TANESPIMYCIN], the GI50 in [1] was 80 nM; in data set [2], 340 nM; in data set [3], 80 nM; in data set [4], 270 nM. The GI50 at 48 h in data set [5] was under 100 nM. Moreover, the Activity in data set [8] is over 10 µM.
Take `CCCN(C(=O)c1cc(C(C)C)c(O)cc1O)c1ccc2c(ccn2C)c1`: in data set [1], the concentration for 50% growth inhibition (GI50) turned out to be 300 nM.
For the compound `CC(C)c1cc(C(=O)Nc2ccc3c(ccn3C)c2)c(O)cc1O`, the GI50 in [1] is over 10000 nM.
With `CCN(C(=O)c1cc(C(C)C)c(O)cc1O)c1ccc2[nH]ccc2c1`, the GI50 amounted to 110 nM in [1], 370 nM in [2], 110 nM in data set [3] and 80 nM in data set [4]. In addition, the 50% growth inhibitory concentration (GI50) at 48 h in [5] was under 100 nM. The IC50 in data set [6] amounted to 117 nM. In [7], the selectivity ratio is 0.9.
Compound `COC1=C2C[C@@H](C)C[C@H](OC)[C@H](O)[C@@H](C)/C=C(\C)[C@H](OC(N)=O)[C@@H](OC)/C=C\C=C(/C)C(=O)NC(=CC1=O)C2=O` [GELDANAMYCIN] registered an Activity in [8] of 1.65 µM.

Source of the values: ChEMBL document CHEMBL4814073, “Ring-opening of five-membered heterocycles conjugated 4-isopropylresorcinol scaffold-based benzamides as HSP90 inhibitors suppressing tumor growth in vitro and in vivo” (Eur J Med Chem, 2021).
